The values that follow come from ChEMBL document CHEMBL1201862, “PubChem BioAssay data set” (2004).

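Step 1: Grow cells in 96-well plates. Step 2: Expose to compound for 48 hours at 5 concentrations. Step 3: Interpolate endpoints linearly; if unreached, use highest concentration. At the GI50, growth is halved.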 Calls of active or inactive are those of the source. Rule as the data show it: active = GI50 up to about 1.1 µM and inactive = higher.

Among the test systems are LOX IMVI; SR; NCI-H226; OVCAR-4; NCI-H23; A498; U-251; HL-60; M14; RPMI-8226; OVCAR-5; Hs-578T; PC-3; 786-0; COLO 205; BT-549; T47D; SNB-75; Malme-3M; HCC 2998.
What all share (experiment): DTP human tumour cell line panel, 48 h

The term GI50 denotes the concentration that inhibits growth by half. For `O=C(O)C1CCN(Cc2oc(CO)cc(=O)c2O)C1` (centres undefined), the GI50 with LOX IMVI, in the assay on SR, in the assay with NCI-H226, with OVCAR-4, in the assay with NCI-H23 and in the assay with A498 was > 100 µM (inactive) throughout. Also, the GI50 in the assay with U-251, in the assay with HL-60, in the assay with M14, with RPMI-8226, in the assay with OVCAR-5 and in the assay on Hs-578T was > 100 µM (inactive) in each case. In addition, the GI50 with PC-3, in the assay on 786-0, in the assay on COLO 205, with BT-549, with T47D and with SNB-75 was > 100 µM (inactive) throughout. In the assay with Malme-3M, the GI50 was > 100 µM (inactive).

Consider `CC(C)CC(NC=O)C(=O)NC(Cc1ccccc1)NC(=O)CNC(=O)C(C)NC(=O)C(N)Cc1ccc(O)cc1` (centres undefined), for which the GI50 with LOX IMVI is > 100 µM (inactive); in the assay with SR it was > 100 µM (inactive); with NCI-H226, > 100 µM (inactive); with OVCAR-4 it was 91.8 µM (inactive); with NCI-H23, > 100 µM (inactive); in the assay on A498, 64.6 µM (inactive). Moreover, the GI50 with U-251, with HL-60, with M14, in the assay with RPMI-8226, in the assay with OVCAR-5 and in the assay with Hs-578T was > 100 µM (inactive) each time. For the same compound, the GI50 in the assay on PC-3, with 786-0, in the assay on COLO 205, in the assay on BT-549, with T47D and in the assay with SNB-75 was > 100 µM (inactive) each time.

On to `CCOC(=O)c1c2ccccc2n2c(N)c(C(N)=O)nnc12`, for which the GI50 is 28.2 µM (inactive) in the assay with LOX IMVI; > 100 µM (inactive) with SR; > 100 µM (inactive) in the assay with OVCAR-4; 16.7 µM (inactive) in the assay with NCI-H23; 21 µM (inactive) in the assay on A498; 15.2 µM (inactive) with U-251. For the same compound, the GI50 was > 100 µM (inactive) with HL-60; > 100 µM (inactive) in the assay with M14; > 100 µM (inactive) with RPMI-8226; > 100 µM (inactive) with OVCAR-5; 4.36 µM (inactive) with Hs-578T; 60 µM (inactive) with PC-3. Moreover, the GI50 in the assay on 786-0 is 21.9 µM (inactive); in the assay with COLO 205, > 100 µM (inactive); with HCC 2998 it was > 100 µM (inactive); in the assay with BT-549, 22.1 µM (inactive); with T47D, 43.1 µM (inactive); in the assay with SNB-75, 11.7 µM (inactive). For the same compound, in the assay on Malme-3M, the GI50 was 70.8 µM (inactive).

Take `CCCCCCCCCCCCCCCCCCOc1ccc(/C=C/C2=[N+](CCCl)CCO2)cc1`: the GI50 with LOX IMVI is > 100 µM (inactive); with SR, 30.9 µM (inactive); in the assay with OVCAR-4, > 100 µM (inactive); in the assay on A498, > 100 µM (inactive); with U-251, 50.4 µM (inactive); in the assay with HL-60, 53.3 µM (inactive). Moreover, the GI50 is > 100 µM (inactive) with M14; > 100 µM (inactive) in the assay on RPMI-8226; 95.7 µM (inactive) in the assay with OVCAR-5; > 100 µM (inactive) with Hs-578T; > 100 µM (inactive) with PC-3; > 100 µM (inactive) with 786-0. The GI50 with COLO 205 is 70.1 µM (inactive); in the assay on BT-549 it was > 100 µM (inactive); in the assay with T47D, > 100 µM (inactive); in the assay with SNB-75 it was 3.54 µM (inactive); in the assay on Malme-3M it was > 100 µM (inactive).

Regarding `O=CC(O)C(O)C(O)C(O)COC(=O)NCCCCC(=O)C(F)(F)C(F)(F)C(F)(F)C(F)(F)C(F)(F)C(F)(F)C(F)(F)F` (centres undefined), the GI50 in the assay on LOX IMVI is 15.3 µM (inactive); in the assay with SR, 28.2 µM (inactive); with OVCAR-4, 51.8 µM (inactive); in the assay with NCI-H23 it was 32.9 µM (inactive); with A498, 20.7 µM (inactive); with U-251, > 10 µM (inactive). Also, the GI50 in the assay with HL-60 was 27.4 µM (inactive); in the assay with M14, 23.7 µM (inactive); in the assay with RPMI-8226, 29.9 µM (inactive); in the assay on OVCAR-5 it was 17.2 µM (inactive); with Hs-578T it was 22.4 µM (inactive); with PC-3 it was 14.3 µM (inactive). Besides, the GI50 with 786-0 is 32.7 µM (inactive); in the assay with COLO 205, 30.5 µM (inactive); with HCC 2998, 24.5 µM (inactive); in the assay on BT-549, 16.1 µM (inactive); in the assay on T47D, > 100 µM (inactive); in the assay on SNB-75, 22.9 µM (inactive). Besides, in the assay with Malme-3M, the GI50 was > 100 µM (inactive).

For `CC12CC(c3ccccc3O1)C(C(=O)Nc1ccc(F)cc1)C(=O)N2` (centres undefined), the GI50 is > 100 µM (inactive) in the assay with LOX IMVI; 73.1 µM (inactive) in the assay on SR; 51.9 µM (inactive) in the assay on OVCAR-4; 44.6 µM (inactive) in the assay with NCI-H23; > 100 µM (inactive) in the assay with A498; > 100 µM (inactive) in the assay on U-251. For the same compound, the GI50 in the assay on HL-60 was 29.6 µM (inactive); in the assay with M14 it was > 100 µM (inactive); in the assay with RPMI-8226, 40.3 µM (inactive); in the assay on OVCAR-5, > 100 µM (inactive); in the assay on Hs-578T it was > 100 µM (inactive); in the assay with PC-3 it was > 100 µM (inactive). Also, the GI50 is > 100 µM (inactive) with 786-0; > 100 µM (inactive) with COLO 205; > 100 µM (inactive) in the assay on HCC 2998; 38.5 µM (inactive) in the assay on BT-549; 33.5 µM (inactive) in the assay on T47D; > 100 µM (inactive) with Malme-3M.

For `C[C@]12Cc3cnn(-c4ccc(F)cc4)c3NC1CC[C@@H]1C2CC[C@@]2(C)C1CC[C@@H]2O` (some centres undefined), the GI50 in the assay on SR is 0.537 µM (active); in the assay with NCI-H226, 7.93 µM (inactive); with OVCAR-4, 13.2 µM (inactive); in the assay on NCI-H23, 2.85 µM (inactive); in the assay with A498, 8.83 µM (inactive); with U-251, 5.15 µM (inactive). In addition, the GI50 is 1.61 µM (inactive) in the assay on HL-60; 11.1 µM (inactive) in the assay on M14; 12.7 µM (inactive) in the assay on OVCAR-5; 3.1 µM (inactive) with Hs-578T; 10 µM (inactive) in the assay on PC-3; 2.68 µM (inactive) in the assay on 786-0. The GI50 was 2.94 µM (inactive) in the assay with COLO 205; 5.41 µM (inactive) in the assay on HCC 2998; 3.14 µM (inactive) in the assay on BT-549; 2.65 µM (inactive) in the assay with T47D; 2.76 µM (inactive) in the assay on SNB-75; 11.5 µM (inactive) in the assay with Malme-3M.

As to `CCOc1cc2c(cc1O)/C(=N/NS(=O)(=O)c1ccc(C)cc1)C[C@@H]1[C@@H]2CC[C@]2(C)[C@@H](O)CC[C@@H]12`, the GI50 in the assay on LOX IMVI is 8.43 µM (inactive); in the assay on SR, 1.04 µM (active); in the assay on NCI-H226 it was 6.01 µM (inactive); in the assay with OVCAR-4, 4.78 µM (inactive); with NCI-H23 it was 32.7 µM (inactive); with A498, 9.31 µM (inactive). Further, the GI50 was 6.53 µM (inactive) with U-251; 3.21 µM (inactive) in the assay on M14; 2.92 µM (inactive) in the assay on RPMI-8226; 21 µM (inactive) in the assay on OVCAR-5; 7.57 µM (inactive) with Hs-578T; 7.53 µM (inactive) in the assay with PC-3. For the same compound, the GI50 is 9.73 µM (inactive) in the assay on 786-0; 3.36 µM (inactive) with COLO 205; 3.75 µM (inactive) with HCC 2998; 3.7 µM (inactive) in the assay with BT-549; 6.87 µM (inactive) with T47D; 5.3 µM (inactive) in the assay on SNB-75. In addition, the GI50 in the assay on Malme-3M is 7.43 µM (inactive).

In the case of `Cc1[nH]n(-c2nc(O)c(-c3ccccc3)c(=O)[nH]2)c(=O)c1CCO`, the GI50 in the assay on SR, in the assay on NCI-H226, with OVCAR-4, in the assay with NCI-H23, in the assay with A498 and in the assay on U-251 was > 100 µM (inactive) in each case. Besides, the GI50 in the assay on HL-60, in the assay with M14, in the assay with RPMI-8226, in the assay with OVCAR-5, in the assay with Hs-578T and in the assay with PC-3 was > 100 µM (inactive) in each case. Besides, the GI50 in the assay with 786-0 is > 100 µM (inactive); in the assay with COLO 205, > 100 µM (inactive); with BT-549, > 100 µM (inactive); with T47D, > 100 µM (inactive); in the assay with SNB-75, 54.5 µM (inactive); with Malme-3M it was > 100 µM (inactive).

On to `COc1ccc(/C=C/C(=O)NCC(NC(=O)/C=C/c2ccc(OC)c(OC)c2)C(=O)O)cc1OC` (centres undefined), for which the GI50 in the assay with LOX IMVI, in the assay on SR, in the assay with NCI-H226, in the assay on OVCAR-4, with NCI-H23 and in the assay with A498 was > 100 µM (inactive) in each case. Moreover, the GI50 in the assay with U-251, in the assay on M14, in the assay with RPMI-8226, in the assay on OVCAR-5, in the assay on Hs-578T and with PC-3 was > 100 µM (inactive) in each case. For the same compound, the GI50 with 786-0, with COLO 205, with HCC 2998, with BT-549, in the assay on T47D and in the assay on SNB-75 was > 100 µM (inactive) each time. For the same compound, the GI50 with Malme-3M was > 100 µM (inactive).
